49 compounds from US8410174B2, “Method for treating arthritis” (AnaMar AB, priority 2000, dated 2013) can be followed below.

For data set [1], the system named is melanocortin receptors. In words: Affinity to the melanocortin receptors. It is filed as binding.
Data set [2] deals with MC1-receptor (Mus musculus, UniProt Q01727). As to the kind of experiment: Affinity for the MC1-receptor, binding assay with I125-NDP-αMSH as ligand. The following applies: read-out: Affinity for MC-receptors Ki MC1. The procedure:
Test 1. Affinity for the MC1-receptor
The binding assay was carried out essentially as described by Lunec et al, Melanoma Res 1992; 2; 5-12, using I^125-NDP-αMSH as ligand.

Data set [3] addresses T1, MC5 (Homo sapiens, UniProt P33032). In words: Stimulation of cAMP, MC5. It is filed as cell-based. As to the method:
(§1) The stimulation of cAMP was carried out essentially as described by Schiöth et al, Br J Pharmacol 1998; 124; 75-82.

Data set [4] addresses T2, MC3 (Homo sapiens, UniProt P41968). In words: Stimulation of cAMP, MC3. It is filed as cell-based. The procedure:
as §1

For data set [5], the target named is T3, MC4 (Homo sapiens, UniProt P32245). As to the kind of experiment: Affinity for the MC4-receptors, binding assay with I125-NDP-αMSH as ligand. The following applies: read-out: Affinity for MC-receptors Ki MC4. As to the method: (§2) Test 2. Affinity for the MC3-Receptors, the MC4-Receptors and the MC5-Receptors
T3 sequence (P32245 whole entry): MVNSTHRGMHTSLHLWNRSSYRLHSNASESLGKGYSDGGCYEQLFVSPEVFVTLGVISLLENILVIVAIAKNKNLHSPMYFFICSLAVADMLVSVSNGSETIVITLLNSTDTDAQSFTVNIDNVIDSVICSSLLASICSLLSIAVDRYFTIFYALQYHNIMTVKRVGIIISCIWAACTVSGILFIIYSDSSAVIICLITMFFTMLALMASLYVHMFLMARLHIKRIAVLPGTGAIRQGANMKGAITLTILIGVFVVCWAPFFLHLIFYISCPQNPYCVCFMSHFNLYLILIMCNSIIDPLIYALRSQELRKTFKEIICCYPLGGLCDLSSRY
(§3) The binding assays were carried out essentially as described by Szardenings et al, J Biol Chem 1997; 272; 27943-27948 and Schiöth et al, FEES Lett 1997; 410; 223-228 using I^125-NDP-αMSH as ligand.

In data set [6] the target is T2, MC3. As to the kind of experiment: Affinity for the MC3-receptors, binding assay with I125-NDP-αMSH as ligand. The following applies: read-out: Affinity for MC-receptors Ki MC3. As to the method:
as §2, §3

In data set [7] the target is T3, MC4. In words: Stimulation of cAMP, MC4. It counts as cell-based. The procedure:
as §1

The target in data set [8] is T1, MC5. In words: Affinity for the MC5-receptors, binding assay with I125-NDP-αMSH as ligand. Conditions: read-out: Affinity for MC-receptors Ki MC5. As to the method: as §2, §3
For data set [9], the target named is MC1 (Homo sapiens, UniProt Q01726). As to the kind of experiment: Stimulation of cAMP, MC1. It is filed as cell-based. As to the method: as §1
Chain of MC1 (Q01726 whole entry): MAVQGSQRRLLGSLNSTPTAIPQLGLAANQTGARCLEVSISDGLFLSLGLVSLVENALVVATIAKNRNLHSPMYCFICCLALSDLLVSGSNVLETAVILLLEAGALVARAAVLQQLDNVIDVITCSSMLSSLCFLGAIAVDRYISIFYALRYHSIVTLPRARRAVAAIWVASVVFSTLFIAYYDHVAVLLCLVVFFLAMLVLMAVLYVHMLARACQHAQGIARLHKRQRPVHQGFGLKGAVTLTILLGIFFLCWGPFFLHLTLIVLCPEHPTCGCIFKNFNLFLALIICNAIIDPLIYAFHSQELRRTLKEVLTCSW

T2 sequence (P41968 whole entry): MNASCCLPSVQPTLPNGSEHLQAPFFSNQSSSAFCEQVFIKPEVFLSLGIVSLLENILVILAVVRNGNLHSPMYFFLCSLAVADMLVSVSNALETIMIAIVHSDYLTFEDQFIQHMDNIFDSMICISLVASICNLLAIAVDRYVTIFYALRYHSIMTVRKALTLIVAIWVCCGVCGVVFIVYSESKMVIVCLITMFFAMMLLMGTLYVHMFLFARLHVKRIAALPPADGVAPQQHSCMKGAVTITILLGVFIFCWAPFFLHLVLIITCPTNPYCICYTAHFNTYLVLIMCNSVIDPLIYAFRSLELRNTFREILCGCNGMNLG
T1 sequence (P33032 whole entry): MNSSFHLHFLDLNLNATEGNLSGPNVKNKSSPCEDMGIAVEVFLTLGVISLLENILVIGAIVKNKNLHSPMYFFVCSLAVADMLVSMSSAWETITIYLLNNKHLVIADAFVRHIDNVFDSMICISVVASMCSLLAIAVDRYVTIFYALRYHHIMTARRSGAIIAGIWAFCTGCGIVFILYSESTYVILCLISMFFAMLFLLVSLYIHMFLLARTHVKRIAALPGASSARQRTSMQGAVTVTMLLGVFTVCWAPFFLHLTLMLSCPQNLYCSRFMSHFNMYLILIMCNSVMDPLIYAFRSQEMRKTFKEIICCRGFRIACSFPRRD
Chain of MC1-receptor (Q01727 whole entry): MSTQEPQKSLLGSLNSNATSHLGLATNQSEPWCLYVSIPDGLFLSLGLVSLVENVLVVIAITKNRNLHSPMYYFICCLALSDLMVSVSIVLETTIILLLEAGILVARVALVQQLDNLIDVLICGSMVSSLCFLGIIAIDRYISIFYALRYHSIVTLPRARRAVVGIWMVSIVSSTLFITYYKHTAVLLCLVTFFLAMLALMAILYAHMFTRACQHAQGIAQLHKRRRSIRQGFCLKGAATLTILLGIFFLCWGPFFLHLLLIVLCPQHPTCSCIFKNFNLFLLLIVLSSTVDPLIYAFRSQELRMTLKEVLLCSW

`CC(=O)O.COc1c(C)cc(C=NNC(=N)N)cc1Br`: the melting point was 163 to 166 °C.

`Cl.N=C(N)NN=Cc1cccc(I)c1` had a melting point of 203 to 204 °C.

`COc1ccc(C=NNC(=N)N)cc1Br.Cl` returned a melting point of 261 to 262.5 °C.

Turning to `CC(=O)O.COc1cc(C=NNC(=N)N)cc(OC)c1OC`, the melting point is 223 to 225 °C.

`CC(=O)O.N=C(N)NN=Cc1ccc(F)c(Br)c1` displayed a melting point of 172 to 173.5 °C.

With `CC(=O)O.N=C(N)NN=Cc1ccc(F)c(F)c1`, the melting point is 176 to 178 °C.

The compound `CC(=O)O.COc1ccc(C=NNC(=N)N)c(Cl)c1OC` came in with a melting point of 198 to 200 °C.

With `CC(=O)O.COc1c(Cl)cc(C=NNC(=N)N)cc1[N+](=O)[O-]`, the melting point is 255 to 258 °C (dec.).

With `Cl.N=C(N)NN=Cc1ccccc1S(=O)(=O)O`, the melting point is over 260 °C.

Regarding `N=C(N)N/N=C/c1c(Cl)cccc1Cl` [Guanabenz], the “affinity to the melanocortin receptors” value in data set [1] is “no affinity”.

`COc1ccc(C=NNC(=N)N)c(OC)c1OC.Cl`: the melting point was in the range of 181 to 183 °C.

In turn, `Cc1cc(O)c(C=NNC(=N)N)cc1[N+](=O)[O-].Cl` returned a melting point of 229 to 230 °C.

With `CC(=O)O.N=C(N)NN=Cc1cccc(F)c1F`, the melting point was in the range of 149 to 151.5 °C.

In the case of `COc1cc([N+](=O)[O-])cc(C=NNC(=N)N)c1OC.Cl`, the melting point was 237 to 238 °C.

Consider `CC(=O)O.Cc1ccc(C=NNC(=N)N)c([N+](=O)[O-])c1O`, for which the melting point was 240 to 241 °C.

In turn, `CC(=O)O.N=C(N)NN=Cc1cc(Cl)cc([N+](=O)[O-])c1Br` gave a melting point of 136.5 to 137 °C.

The compound `N=C(NO)NN=Cc1ccccc1S(=O)(=O)O` [1:134, N-(2-Sulphobenzylideneamino)-N′-hydroxyguanidine] returned a melting point of 243.5 to 244 °C.

Regarding `CC(=O)O.N=C(N)NN=Cc1cc([N+](=O)[O-])c(Br)cc1F`, the melting point was 175 to 198 °C (dec.).

`COc1ccc([N+](=O)[O-])c(C=NNC(=N)N)c1[N+](=O)[O-].Cl` had a melting point of 217 to 218 °C.

Take `CC(=O)O.N=C(N)NN=Cc1cc([N+](=O)[O-])cc([N+](=O)[O-])c1.O.O` (hydrate or solvate): the melting point is 251 to 254 °C (dec.).

`CC(=O)O.COc1cc(OC)c(C=NNC(=N)N)c(OC)c1` showed a melting point of 66 to 68 °C.

In the case of `CC(=O)O.N=C(N)NN=Cc1ccc(F)c([N+](=O)[O-])c1`, the melting point is 222 to 224 °C (dec.).

In the case of `CC(=O)O.N=C(N)NN=Cc1cc([N+](=O)[O-])ccc1F`, the melting point lay in the range of 192 to 195 °C.

For the compound `CC(=O)O.COc1cc(Cl)c([N+](=O)[O-])cc1C=NNC(=N)N`, the melting point fell in the range of 196 to 199 °C.

`CC(=O)O.N=C(N)NN=Cc1cc(F)cc(F)c1[N+](=O)[O-]` had a melting point of 231 to 233 °C.

The compound `Cc1cc([N+](=O)[O-])c(C=NNC(=N)N)cc1Br.Cl` gave a melting point of 246.5 to 248 °C.

In the case of `COc1cc([N+](=O)[O-])cc(C=NNC(=N)N)c1O.Cl`, the melting point is 243 to 246 °C.

For `CC(=O)O.N=C(N)NN=Cc1ccc(Br)c([N+](=O)[O-])c1`, the melting point lay within 152 to 153 °C.

`CC(=O)O.N=C(N)NN=Cc1ccc(Br)cc1F` yielded a melting point of 187 to 188 °C.

For the compound `CC(=O)O.COc1cc(O)c(C=NNC(=N)N)c(OC)c1`, the melting point lay within 115 to 118 °C.

For `COc1ccc(C=NNC(=N)NO)cc1[N+](=O)[O-]` [1:76, N-(4-Methoxy-3-nitrobenzylideneamino)-N′-hydroxyguanidine], the melting point lay within 219 to 221 °C.

For the compound `CC(=O)O.N=C(N)NN=Cc1c(F)cccc1F`, the melting point fell in the range of 138.5 to 141 °C.

In the case of `CC(=O)O.COc1c(Cl)cc(C=NNC(=N)N)cc1Cl`, the melting point lay in the range of 185 to 190 °C.

For the compound `COc1cc([N+](=O)[O-])cc(C=NNC(=N)NO)c1OC.Cl`, the melting point fell in the range of 196 to 197.5 °C.

Take `Cc1ccc(S(=O)(=O)O)cc1.N=C(NO)NN=Cc1cc(Cl)ccc1[N+](=O)[O-]` [1:4, N-(5-Chloro-2-nitrobenzylideneamino)-N′-hydroxyguanidine tosylate]: the Ki was 42 µM in [2], 61 µM in data set [5], 68 µM in data set [6] and 33 µM in data set [8]. Moreover, the “Influence on cAMP MC5c” value in [3] was found to be 8.7. The “Influence on cAMP MC3c” value in data set [4] came out at 1. Besides, the “Influence on cAMP MC4c” value in [7] was determined as 17.1. Besides, in data set [9], the “Influence on cAMP MC1c” value was determined as 6.4.

`CC(=O)O.COc1ccc(C=NNC(=N)N)cc1[N+](=O)[O-]`: the melting point lay within 144 to 147 °C.

On to `CC(=O)O.N=C(N)NN=Cc1cc(Cl)cc(Cl)c1[N+](=O)[O-]`, for which the melting point lay in the range of 88 to 91 °C.

The compound `CC(=O)O.COc1cc([N+](=O)[O-])c([N+](=O)[O-])c(C=NNC(=N)N)c1OC` registered a melting point of 165 to 171 °C.

`CC(=O)O.COc1ccc(C=NNC(=N)N)c(O)c1` showed a melting point of 161 to 164 °C.

`CC(=O)O.N=C(N)NN=Cc1c(Cl)ccc(Cl)c1[N+](=O)[O-]` showed a melting point of 219.5 to 221 °C.

The compound `Cl.N=C(N)NN=Cc1cc(Br)cc([N+](=O)[O-])c1O` displayed a melting point of over 250 °C.

Take `COc1c(C=NNC(=N)N)cc(Br)cc1[N+](=O)[O-].Cl`: the melting point lay within 258 to 259 °C.

For the compound `Cl.N=C(N)NN=Cc1c([N+](=O)[O-])ccc(Br)c1[N+](=O)[O-]`, the melting point is 166.5 to 168 °C.

Regarding `COc1ccc(C=NNC(=N)NO)cc1Br.Cc1ccc(S(=O)(=O)O)cc1` [1:3, N-(3-Bromo-4-methoxybenzylideneamino)-N′-hydroxyguanidine tosylate], the Ki in data set [2] is 42 µM; in data set [5], 62 µM; in data set [6] it was 91 µM; in data set [8] it was 47 µM. For the same compound, the “Influence on cAMP MC5c” value in data set [3] amounted to 4.7. In data set [4], the “Influence on cAMP MC3c” value worked out at 16. Besides, the “Influence on cAMP MC4c” value in [7] was determined as 31.8. Further, in [9], the “Influence on cAMP MC1c” value is reported as 8.4.

With `Cl.N=C(N)NN=Cc1c(Cl)ccc([N+](=O)[O-])c1[N+](=O)[O-]`, the melting point was in the range of 153 to 154.5 °C.

Take `CC(=O)O.N=C(N)NN=Cc1cc([N+](=O)[O-])ccc1Cl`: the melting point was 222 to 224 °C (dec.).

With `CC(=O)O.N=C(N)NN=Cc1ccc([N+](=O)[O-])cc1[N+](=O)[O-]`, the melting point is 224 to 226 °C.

The compound `CC(=O)O.COc1cc([N+](=O)[O-])cc(C=NNC(=N)N)c1OC` had a melting point of 191 to 194 °C.

As to `CC(=O)O.COc1cc(OC)c([N+](=O)[O-])cc1C=NNC(=N)N`, the melting point lay within 207 to 210 °C.

A word on the melting point: it is the temperature of the solid-liquid transition. As a reminder, the Ki is the equilibrium dissociation constant of an inhibitor or competing ligand from its target.
